Source: ChEMBL document CHEMBL1135288, “Anthranilate sulfonamide hydroxamate TACE inhibitors. Part 1: Structure-based design of novel acetylenic P1' groups” (Bioorg Med Chem Lett, 2002)

Assays:
Interstitial collagenase = biological target: T1, Interstitial collagenase (Homo sapiens, UniProt P03956); assay: Inhibition of Matrix metalloprotease-1
T1 sequence (P03956 whole entry): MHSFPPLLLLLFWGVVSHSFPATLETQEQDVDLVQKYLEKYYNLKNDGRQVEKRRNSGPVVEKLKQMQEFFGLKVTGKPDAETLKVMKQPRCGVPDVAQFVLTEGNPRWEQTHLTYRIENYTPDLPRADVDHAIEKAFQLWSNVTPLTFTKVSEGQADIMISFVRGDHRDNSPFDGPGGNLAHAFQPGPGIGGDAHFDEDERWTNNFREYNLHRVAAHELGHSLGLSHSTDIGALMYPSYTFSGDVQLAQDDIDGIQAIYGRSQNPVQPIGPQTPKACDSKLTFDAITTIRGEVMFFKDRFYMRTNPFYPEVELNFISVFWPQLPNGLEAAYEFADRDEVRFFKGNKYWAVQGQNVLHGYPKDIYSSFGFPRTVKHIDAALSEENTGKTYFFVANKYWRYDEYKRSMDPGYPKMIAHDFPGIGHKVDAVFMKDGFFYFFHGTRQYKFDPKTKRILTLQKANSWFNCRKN

[1] = biological target: Matrix metalloproteinase-9 (Homo sapiens, UniProt P14780); assay: Inhibition of Matrix metalloprotease-9
Collagenase 3 = Collagenase 3 (Homo sapiens, UniProt P45452); assay: Inhibition of Matrix metalloprotease-13
[2] = biological target: Disintegrin and metalloproteinase domain-containing protein 17 (Sus scrofa, UniProt O77636); assay: Inhibition of porcine Tumor necrosis factor alpha converting enzyme
[3] = biological target: T2, Interstitial collagenase (Homo sapiens) (UniProt P03956); assay: Inhibition of Matrix metalloprotease-1 at 10 uM
T2 sequence (whole entry): T1 sequence (P03956 whole entry)

Disintegrin and metalloproteinase domain-containing protein 17, sequence (O77636 whole entry, the tested form may be a part): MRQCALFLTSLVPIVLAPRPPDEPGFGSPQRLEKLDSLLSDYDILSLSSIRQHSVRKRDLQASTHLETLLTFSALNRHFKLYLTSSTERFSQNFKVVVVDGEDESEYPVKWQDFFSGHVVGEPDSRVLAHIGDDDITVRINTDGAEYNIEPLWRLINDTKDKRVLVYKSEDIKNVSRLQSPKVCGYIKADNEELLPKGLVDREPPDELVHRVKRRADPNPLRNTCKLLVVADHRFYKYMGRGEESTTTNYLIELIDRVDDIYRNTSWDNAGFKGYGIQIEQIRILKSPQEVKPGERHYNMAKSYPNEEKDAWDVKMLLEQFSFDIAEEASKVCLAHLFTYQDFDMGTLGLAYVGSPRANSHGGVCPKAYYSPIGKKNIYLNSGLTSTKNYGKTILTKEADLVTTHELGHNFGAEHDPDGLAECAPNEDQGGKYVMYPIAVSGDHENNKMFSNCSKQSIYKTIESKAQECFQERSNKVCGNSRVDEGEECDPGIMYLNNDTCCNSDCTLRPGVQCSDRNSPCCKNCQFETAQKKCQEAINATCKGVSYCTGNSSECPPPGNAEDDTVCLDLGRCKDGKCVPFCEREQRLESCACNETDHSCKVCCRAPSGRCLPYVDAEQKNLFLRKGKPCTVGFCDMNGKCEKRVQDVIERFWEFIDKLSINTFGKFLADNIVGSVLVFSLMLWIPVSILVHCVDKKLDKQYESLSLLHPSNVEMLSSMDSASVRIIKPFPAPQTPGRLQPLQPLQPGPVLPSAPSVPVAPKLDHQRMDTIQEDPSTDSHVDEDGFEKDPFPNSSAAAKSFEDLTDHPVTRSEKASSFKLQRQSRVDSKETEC
Matrix metalloproteinase-9, sequence (P14780 whole entry): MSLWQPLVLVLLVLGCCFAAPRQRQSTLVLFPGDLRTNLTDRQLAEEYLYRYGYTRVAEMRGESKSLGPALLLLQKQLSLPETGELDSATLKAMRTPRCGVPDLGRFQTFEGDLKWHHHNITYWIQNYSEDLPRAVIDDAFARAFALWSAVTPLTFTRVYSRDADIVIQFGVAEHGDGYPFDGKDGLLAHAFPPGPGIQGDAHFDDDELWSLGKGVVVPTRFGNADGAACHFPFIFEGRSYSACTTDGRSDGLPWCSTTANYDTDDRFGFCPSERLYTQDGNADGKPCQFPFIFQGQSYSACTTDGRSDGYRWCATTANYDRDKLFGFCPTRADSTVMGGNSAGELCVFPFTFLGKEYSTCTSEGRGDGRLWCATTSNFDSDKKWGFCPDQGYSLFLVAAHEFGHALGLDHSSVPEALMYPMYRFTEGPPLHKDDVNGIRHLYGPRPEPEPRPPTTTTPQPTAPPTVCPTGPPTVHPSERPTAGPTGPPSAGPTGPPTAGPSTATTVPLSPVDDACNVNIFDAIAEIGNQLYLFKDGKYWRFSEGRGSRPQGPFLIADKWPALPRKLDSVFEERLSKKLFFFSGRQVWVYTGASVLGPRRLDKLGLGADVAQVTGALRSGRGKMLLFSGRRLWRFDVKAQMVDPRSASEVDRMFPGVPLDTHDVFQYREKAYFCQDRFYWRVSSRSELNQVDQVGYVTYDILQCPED

Structure (SMILES) | IC50 (Interstitial collagenase) [nM] | IC50 [1] [nM] | IC50 (Collagenase 3) [nM] | IC50 [2] [nM] | inhibition [3] [%]
CCCCOc1ccc(S(=O)(=O)N(C)c2c(C)cc(Br)cc2C(=O)NO)cc1 | 2490 | 21 | 68 | 67 | 
C#CCOc1ccc(S(=O)(=O)N(C)c2c(C)cc(Br)cc2C(=O)NO)cc1 |  |  |  | 11 | 
CCCCC#CCOc1ccc(S(=O)(=O)N(C)c2c(C)cc(Br)cc2C(=O)NO)cc1 |  |  |  |  | 53
